Test results reported in patent publication US8969554B2, “6-acyl-1,2,4-triazine-3,5-dione derivative and herbicides” (Kumiai Chemical Industry Co., Ltd., priority 2010, dated 2015).

How the values were obtained:
Type in all cases: in vivo
Echinochloa oryzicola = test: Herbicidal activity by paddy field soil treatment (Test Example 1); design: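 index 0 to 10 in 10% steps of herbicidal effect with 10 meaning complete death and 0 below 10%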; details: 1000 g of effective component per hectare, evaluated on day 21 after the treatment, criteria of Table 72
Outline: (§1)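 Paddy soil was watered and puddled, seeded, then flooded to 3 cm. One day later the formulation, diluted with water, went onto the water surface at 1000 g/ha of active ingredient. After 21 days in the greenhouse, effects were scored.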

Monochoria vaginalis = test: as above; design: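 index 0 to 10 in 10% steps of herbicidal effect with 10 meaning complete death and 0 below 10%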; details: 1000 g of effective component per hectare, evaluated on day 21 after the treatment, criteria of Table 72
Outline: as §1

Scirpus juncoides Rocxb. = test: as above; design: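 index 0 to 10 in 10% steps of herbicidal effect with 10 meaning complete death and 0 below 10%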; details: applied on water surface, 1000 g of effective component per hectare, day 21 after the treatment
Outline: as §1

A. retroflexus [1] = test: Herbicidal activity by field soil treatment (Test example 2); design: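 index 0 to 10 in 10% steps of herbicidal effect with 10 meaning complete death and 0 below 10%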; details: 1000 g effective component per hectare, day 21 after the treatment
Outline: (§2)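 Field soil filled 80 cm^2 pots; seeds were sown, covered, and the soil surface treated with a small sprayer. Dose: 1000 g/ha of active component from a water-diluted wettable powder, applied in 1000 L/ha. Greenhouse cultivation followed, with evaluation at day 21.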

Echinochloa crus-galli [2] = test: as above; design: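 index 0 to 10 in 10% steps of herbicidal effect with 10 meaning complete death and 0 below 10%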; details: 1000 g effective component per hectare, day 21 after the treatment
Outline: as §2

Indian millet [3] = test: as above; design: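 index 0 to 10 in 10% steps of herbicidal effect with 10 meaning complete death and 0 below 10%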; details: 1000 g effective component per hectare, day 21 after the treatment
Outline: as §2

foxtail = test: as above; details: 1000 g effective component per hectare, day 21 after the treatment;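 also: index 0 to 10 in 10% steps of herbicidal effect with 10 meaning complete death and 0 below 10%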
Experimental: [table] Test for Determining Herbicidal Activity by Field Soil Treatment A 80 cm^2 wide plastic pot was filled with a field soil and seeds of each of Echinochloa crus-galli, foxtail, Indian millet, and A. retroflexus were sowed and then covered with soil. The wettable powder produced with reference to the Formulation example 1 was diluted water, and applied on the soil surface by using a small sprayer in an amount of 1000 liters per hectare so that the effective component is 1000 g per hectare. After that, the plants were cultivated in a greenhouse, and on day 21 after the treatment, evaluation was made by the criteria described in Table 72 for determining the herbicidal effects.

A. retroflexus [4] = test: Herbicidal activity by field foliage treatment (Test example 3); design: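 index 0 to 10 in 10% steps of herbicidal effect with 10 meaning complete death and 0 below 10%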; details: 1000 g effective component per hectare, day 14 after the treatment
Outline: (§3)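 Seeds sown in field soil and kept 2 weeks in a greenhouse; foliage of the whole plant then sprayed with diluted wettable powder (1000 L/ha, 1000 g a.i./ha); plants returned to the greenhouse and scored for herbicidal effect on day 14.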

Indian millet [5] = test: as above; design: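 index 0 to 10 in 10% steps of herbicidal effect with 10 meaning complete death and 0 below 10%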; details: 1000 g effective component per hectare, day 14 after the treatment
Outline: as §3

Echinochloa crus-galli [6] = test: as above; design: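 index 0 to 10 in 10% steps of herbicidal effect with 10 meaning complete death and 0 below 10%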; details: 1000 g effective component per hectare, day 14 after the treatment
Outline: (§4)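 Herbicidal effect was rated on day 14 following a foliar spray of 1000 g active ingredient per hectare, applied as water-diluted wettable powder at 1000 L/ha. Plants had been raised for 2 weeks in field soil under greenhouse conditions before spraying.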

Setaria viridis = test: as above; details: 1000 g effective component per hectare, day 14 after the treatment;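 also: index 0 to 10 in 10% steps of herbicidal effect with 10 meaning complete death and 0 below 10%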
Outline: as §4

Row | Structure (SMILES) | Herbicidal effects index number, Echinochloa oryzicola (Echinochloa oryzicola) | Herbicidal effects index number, Monochoria vaginalis (Monochoria vaginalis) | herbicidal effect index, S. juncoides Rocxb. (Scirpus juncoides Rocxb.) | herbicidal effect index, Amaranthus retroflexus (A. retroflexus [1]) | herbicidal effect index, Echinochloa crus-galli (Echinochloa crus-galli [2]) | herbicidal effect index, Abutilon theophrasti (Indian millet [3]) | herbicidal effect index, Setaria viridis (foxtail) | herbicidal effect index, Amaranthus retroflexus (A. retroflexus [4]) | herbicidal effect index, Abutilon theophrasti (Indian millet [5]) | herbicidal effect index, Echinochloa crus-galli (Echinochloa crus-galli [6]) | herbicidal effect index, Setaria viridis (Setaria viridis)
1 | CC(C)n1c(=O)c(C(=O)C2=C(O)CCCC2=O)nn(C)c1=O [I-4] | 9 | 9 | 10 | 10 | 9 | 9 | 9 | 9 | 9 | 9 | 9
2 | Cc1ccc(Cl)c(-n2c(=O)c(C(=O)C3=C(O)CCCC3=O)nn(C)c2=O)c1 [I-129] | 10 | 10 | 10 | 10 | 9 | 10 | 10 | 10 | 9 | 10 | 9
3 | Cc1ccc(-n2c(=O)c(C(=O)C3=C(O)CCCC3=O)nn(C)c2=O)cn1 [I-289] | 10 | 10 | 10 | 10 | 9 | 9 | 7 | 10 | 9 | 9 | 7
4 | Cn1nc(C(=O)C2=C(O)CCCC2=O)c(=O)n(N2CCOCC2)c1=O [I-202] | 10 | 10 | 10 | 10 | 10 | 9 | 9 | 9 | 9 | 9 | 9
5 | Cc1ccccc1-n1c(=O)c(C(=O)C2=C(O)CCCC2=O)nn(C)c1=O [I-57] | 10 | 10 | 10 | 10 | 10 | 10 | 10 | 10 | 10 | 10 | 10
6 | Cc1cccc(-n2c(=O)c(C(=O)C3=C(O)CCCC3=O)nn(C)c2=O)c1C [I-89] | 10 | 10 | 10 | 10 | 9 | 10 | 8 | 10 | 10 | 9 | 10
7 | Cn1nc(C(=O)C2=C(O)CCCC2=O)c(=O)n(-c2ccccc2-c2ccccc2)c1=O [I-269] | 8 | 8 | 10 | 10 | 8 | 9 | 9 | 10 | 9 | 10 | 8
8 | Cn1nc(C(=O)C2=C(O)CCCC2=O)c(=O)n(-c2cc(F)ccc2F)c1=O [I-79] | 10 | 10 | 10 | 10 | 9 | 10 | 10 | 10 | 10 | 10 | 10
9 | C#CCn1c(=O)c(C(=O)C2=C(O)CCCC2=O)nn(C)c1=O [I-14] | 10 | 10 | 10 | 10 | 10 | 10 | 10 | 10 | 10 | 9 | 10
10 | Cc1cc(Cl)ccc1-n1c(=O)c(C(=O)C2=C(O)CCCC2=O)nn(C)c1=O [I-137] | 10 | 10 | 10 | 10 | 10 | 10 | 9 | 10 | 10 | 10 | 10
11 | Cn1nc(C(=O)C2=C(O)CCCC2=O)c(=O)n(-c2cccc(C#N)c2)c1=O [I-73] | 10 | 10 | 10 | 10 | 9 | 10 | 8 | 10 | 10 | 10 | 10
